Each compound was assayed against T1, C-X-C chemokine receptor type 2 (Homo sapiens, UniProt P25025) (assay: Antagonist activity at CXCR2 in human CD4 cells by fluorescence based calcium mobilization assay).
T1 sequence (P25025 whole entry): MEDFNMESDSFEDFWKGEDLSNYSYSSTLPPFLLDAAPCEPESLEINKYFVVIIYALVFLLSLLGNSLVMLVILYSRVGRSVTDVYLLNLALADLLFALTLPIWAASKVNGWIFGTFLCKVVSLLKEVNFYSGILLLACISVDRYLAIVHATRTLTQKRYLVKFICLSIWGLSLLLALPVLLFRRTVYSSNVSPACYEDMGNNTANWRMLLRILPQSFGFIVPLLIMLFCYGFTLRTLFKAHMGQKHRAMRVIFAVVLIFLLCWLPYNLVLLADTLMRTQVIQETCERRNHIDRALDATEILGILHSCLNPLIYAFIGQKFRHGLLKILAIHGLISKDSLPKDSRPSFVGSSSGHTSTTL
Assay type: functional, cell-based, CD4+ve Th

Compound | IC50 [µM]
Fc1cccc(CSc2nc(NCC3CC3)c3nn[nH]c3n2)c1F | 2.98
Fc1cccc(CSc2nc(N3CCNCC3)c3nn[nH]c3n2)c1F | > 30
COCCNc1nc(SCc2cccc(F)c2F)nc2[nH]nnc12 | 8.78
CCCC(C)CSc1nc(N[C@H](C)CO)c2nn[nH]c2n1 (stereo not given in full) | 2.58
C[C@H](CO)Nc1nc(SCC2CCCC2)nc2[nH]nnc12 | 2.37
C[C@H](CCO)Nc1nc(SCc2cccc(F)c2F)nc2[nH]nnc12 | 2.09
CN(C)CCNc1nc(SCc2cccc(F)c2F)nc2[nH]nnc12 | > 30
CC(C)(C)OC(=O)N1CCN(c2nc(SCc3cccc(F)c3F)nc3[nH]nnc23)CC1 | 11.5
CCCNC(=O)CSc1nc(N[C@H](C)CO)c2nn[nH]c2n1 | > 30
C[C@@H](CO)Nc1nc(SCc2cccc(F)c2F)nc2[nH]nnc12 | 1.75
Cc1ccc([C@H](NC2=NS(=O)(=O)N=C2Nc2ccc(C)c(C(=O)N(C)C)c2O)C(C)(C)C)o1 | 6.4
C[C@H](CO)Nc1nc(SC2CCCCC2)nc2[nH]nnc12 | > 30

These compounds were tested against T2, C-C chemokine receptor type 7 (Homo sapiens, UniProt P32248) (assay: Antagonist activity at CCR7 in human CD4 cells by fluorescence based calcium mobilization assay).
T2 sequence (P32248 whole entry): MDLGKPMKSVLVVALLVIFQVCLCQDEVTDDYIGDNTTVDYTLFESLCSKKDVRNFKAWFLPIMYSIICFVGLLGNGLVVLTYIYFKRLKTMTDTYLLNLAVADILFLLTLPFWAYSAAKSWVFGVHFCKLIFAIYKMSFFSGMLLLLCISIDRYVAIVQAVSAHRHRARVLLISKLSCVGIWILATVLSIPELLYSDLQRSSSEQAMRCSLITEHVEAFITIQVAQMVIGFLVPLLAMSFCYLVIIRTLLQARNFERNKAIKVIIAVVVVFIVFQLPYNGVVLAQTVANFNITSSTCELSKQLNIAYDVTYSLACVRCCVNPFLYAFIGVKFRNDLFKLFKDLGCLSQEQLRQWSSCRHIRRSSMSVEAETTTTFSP
Assay type: functional, cell-based, CD4+ve Th

Compound | IC50 [µM]
C[C@H](CO)Nc1nc(SCc2cccc(F)c2F)nc2nc(N)sc12 | > 30
C[C@H](CO)Nc1nc(SCc2cccc(F)c2F)nc2sccc12 | > 30
C[C@H](CO)Nc1nc(SCc2cccc(F)c2F)nc2cccnc12 | > 30
C[C@H](CO)Nc1nc(SCc2cccc(F)c2F)nc2ccsc12 | > 30
C[C@H](CO)Nc1nc(SCc2cccc(F)c2F)nc2cc[nH]c12 | > 30
C[C@H](CO)Nc1nc(SCc2cccc(F)c2F)nc2cnccc12 | > 30
C[C@H](CO)Nc1nc(SCc2cccc(F)c2F)nc2c1CNCC2 | > 30
Fc1cccc(CSc2nc(NCC3CC3)c3nn[nH]c3n2)c1F | > 30
C[C@H](CO)Nc1nc(SCCC2CCCCC2)nc2[nH]nnc12 | 1.68
C[C@H](CO)Nc1nc(OCc2cccc(F)c2F)nc2[nH]nnc12 | 23.8
Fc1cccc(CSc2nc(N3CCNCC3)c3nn[nH]c3n2)c1F | > 30
CC(C)(CO)Nc1nc(SCc2cccc(F)c2F)nc2[nH]nnc12 | 2.29
COCCNc1nc(SCc2cccc(F)c2F)nc2[nH]nnc12 | 17.2
CCCC(C)CSc1nc(N[C@H](C)CO)c2nn[nH]c2n1 (stereo not given in full) | 8.49
CC(C)CCCCSc1nc(N[C@H](C)CO)c2nn[nH]c2n1 | 5.28
OCCSc1nc(SCc2cccc(F)c2F)nc2[nH]nnc12 | 5.81
CN(C)c1nc(SCc2cccc(F)c2F)nc2[nH]nnc12 | > 30
CCCOCCSc1nc(N[C@H](C)CO)c2nn[nH]c2n1 | 29.3
OCCNc1nc(SCc2cccc(F)c2F)nc2[nH]nnc12 | 8.66
C[C@H](CCO)Nc1nc(SCc2cccc(F)c2F)nc2[nH]nnc12 | 7.14
CN(C)CCNc1nc(SCc2cccc(F)c2F)nc2[nH]nnc12 | > 30
CC(C)(C)OC(=O)N1CCN(c2nc(SCc3cccc(F)c3F)nc3[nH]nnc23)CC1 | > 30
C[C@H](CO)Nc1nc(SCCc2ccccc2)nc2[nH]nnc12 | 1.18
OCCCNc1nc(SCc2cccc(F)c2F)nc2[nH]nnc12 | 18.6
C[C@H](CO)Nc1nc(SCc2cccc(F)c2F)nc2c1nnn2C | > 30
CCCCCCSc1nc(N[C@H](C)CO)c2nn[nH]c2n1 | 0.43
C[C@H](CO)Nc1nc(Sc2ccccc2)nc2[nH]nnc12 | > 30

The compounds below were run against T2, C-C chemokine receptor type 7 (assay: Competitive binding affinity to CCR7 in human U87 cells preincubated for 15 mins followed by CCL19 AF647 addition measured after 30 mins by flow cytometric analysis).
Assay type: cell-based

Compound | IC50 [µM]
CCCCCCSc1nc(N[C@H](C)CO)c2nn[nH]c2n1 | 1.78
